Test results as given in patent US12246022B2, “Compositions and methods for treating, preventing or reversing age associated inflammation and disorders” (BROWN UNIVERSITY, priority 2019, dated 2025).
Like-named read-outs stand apart in the source and are kept apart here.

Tests used:
[1] = in vivo; cited from earlier work
human LINE-1 [2] = assay: Islatravir Inhibitory Quotient (IQ) estimate for human LINE-1 in PBMC and brain; details: PBMC, intracellular EFdA-TP, used for IQ
HIV WT = details: read-out: IC50 for HIV (intracellular EFdA-TP); cited from earlier work
human LINE-1 [3] = assay: Human LINE-1 retrotransposition assay, related experiments with islatravir (pYX017, HeLa cells, Tables 12 and 13); format: cell-based
Experimental: In related experiments, islatravir and other compounds were tested for inhibition of retrotransposition activity of human LINE-1 in HeLa cells according to the following procedure.
HeLa cervical cancer cells were cultivated at 37° C. in a humidified 5% CO2 incubator in Dulbecco's Modified Eagle's Medium (DMEM)—high glucose, with 4500 mg/L glucose, L-glutamine, sodium pyruvate and sodium bicarbonate (Sigma), supplemented with 10% of heat inactivated fetal bovine serum (Thermo Fisher).
Assays were performed using reporter plasmid pYX017 as described (Xie, et al., 2011) with several modifications. The reporter assay was performed in 96-well white optical bottom plates. HeLa cells were seeded in wells 24 h prior to transfection and compound treatment so that cells were approximately 30% confluent on the day of transfection. Different cell plating densities were tested and a density of 2×10^3 cells was determined to be optimal.
Compounds were resuspended in DMSO. Serial dilutions (1:3) were prepared in DMSO. Medium containing different concentrations of the compounds were prepared by adding 2 μl of the compound dilution to 1 ml of the culture medium. The final concentration of DMSO in the medium was 0.2%.
FuGENE® HD transfection reagent (Promega, E2311, Lot 382574 and Lot 397842) was used to transfect the plasmids into the cells. The transfection reagent: DNA mixture was prepared in OpiMEM (Thermo Fisher) according to manufacturer's instructions. Different ratios of transfection reagent to DNA were tested and a ratio of 3:1 was determined to be optimal. Culture medium was removed from the cells and discarded. The transfection reagent: DNA mixture (5 μl) was mixed with the compound containing medium (100 μl/well) and this was added onto the cells of each well. Cells were incubated at 37° C./5% CO2 for different incubation time. A 72 h incubation time was determined to be optimal.
Luciferase reporter activity was quantified with the Dual-Luciferase® Reporter Assay System (Promega) according to manufacturer's instructions for multiwell plates except that cells were lysed directly on the multiwell plate with 30 μl of the passive lysis buffer (PLB) for 20 min at room temperature, with gentle shaking to ensure complete cell lysis.
Firefly and Renilla luciferase signals were measured using a SpectraMax i3x Multi-Mode Microplate Reader. Integration times of 100 ms and 10 ms were used to measure the Firefly and Renilla signals respectively. Relative L1 activity is calculated as Firefly/Renilla *1000 or Firefly/Renilla *10,000. Dose response inhibition data were fit to a four parameter logistic equation using non-linear regression (using Graphpad Prism 8), to determine IC50 values for each inhibitor.

[4] = Table 13 Comparative Studies; cited from earlier work
mouse LINE-1 = assay: Mouse LINE-1 retrotransposition assay (dual luciferase pYX016 reporter, HeLa cells); format: cell-based
Experimental: Elvucitabine was obtained by custom synthesis. […] HeLa cervical cancer cells were cultivated at 37° C. in a humidified 5% CO2 incubator in Dulbecco's Modified Eagle's Medium (DMEM)-high glucose, with 4500 mg/L glucose, L-glutamine, sodium pyruvate and sodium bicarbonate (Sigma), supplemented with 10% of heat inactivated fetal bovine serum (Thermo Fisher). Assays were performed as described in Xie et al., 2011^151 with several modifications. The reporter assay was performed in 96 well white Optical bottom plates. 6000 HeLa cells were seeded in each well 24 hours prior transfection and compound treatment. All compounds were resuspended in DMSO. Stock solution concentrations varied from 50 mM to 1.25 mM depending of the solubility of the compound. Serial dilutions (1:3) were prepared in DMSO. Ten different concentrations of each compound were tested in triplicate. Medium containing different concentrations of the compounds were prepared by adding 2 μL of the compound dilution to 1 mL of the culture medium. The final concentration of DMSO in the medium was 0.2%. FuGENE® HD transfection reagent (Promega) was used to transfect the plasmid pYX016 into the cells. The transfection mix was prepared in OpiMEM (Thermo Fisher) using a reagent to DNA ratio of 3.5:1 according to manufacturer's instructions. Culture medium was removed from the cells and discarded. The transfection mix (5 μL) was mixed with the compound containing medium (100 μL/well) and this was added onto the cells of each well. Cells were incubated for 48H at 37° C./5% CO2. Luciferase reporter activity was quantified with the Dual-Luciferase® Reporter Assay System (Promega) according to manufacturer's instructions for multiwell plates with the following modification: Cells were lysed directly on the multiwell plate with 30 μL of the passive lysis buffer (PLB) for 20 min at room temperature, with gentle shaking to ensure complete cell lysis (instead of 20 μL of PLB for 15 min). Firefly and Renilla luciferase signals were measured using a SpectraMax i3x Multi-Mode Microplate Reader. […] Relative L1 activity was calculated as Firefly/Renilla *10,000. […] The experiment was performed twice, independently.

[5] = Comparative studies: intracellular drug concentration relative to LINE-1 IC50 and huCSF/Plasma ratio; details: Table 13 Comparative Studies
human LINE-1 [6] = assay: Human LINE-1 retrotransposition assay (dual luciferase pYX017 reporter, HeLa cells, Table 11); format: cell-based
Experimental: Assays were performed as described in Xie et al., 2011^151 with several modifications. The reporter assay was performed in 96 well white Optical bottom plates. 6000 HeLa cells were seeded in each well 24 hours prior transfection and compound treatment. All compounds were resuspended in DMSO. Stock solution concentrations varied from 50 mM to 1.25 mM depending of the solubility of the compound. Serial dilutions (1:3) were prepared in DMSO. Ten different concentrations of each compound were tested in triplicate. Medium containing different concentrations of the compounds were prepared by adding 2 μL of the compound dilution to 1 mL of the culture medium. The final concentration of DMSO in the medium was 0.2%. FuGENE® HD transfection reagent (Promega) was used to transfect the plasmid pYX016 into the cells. The transfection mix was prepared in OpiMEM (Thermo Fisher) using a reagent to DNA ratio of 3.5:1 according to manufacturer's instructions. Culture medium was removed from the cells and discarded. The transfection mix (5 μL) was mixed with the compound containing medium (100 μL/well) and this was added onto the cells of each well. Cells were incubated for 48H at 37° C./5% CO2. Luciferase reporter activity was quantified with the Dual-Luciferase® Reporter Assay System (Promega) according to manufacturer's instructions for multiwell plates with the following modification: Cells were lysed directly on the multiwell plate with 30 μL of the passive lysis buffer (PLB) for 20 min at room temperature, with gentle shaking to ensure complete cell lysis (instead of 20 μL of PLB for 15 min). Firefly and Renilla luciferase signals were measured using a SpectraMax i3x Multi-Mode Microplate Reader. […] Relative L1 activity was calculated as Firefly/Renilla *10,000. […] The experiment was performed twice, independently. […] Because the human construct yields a lower signal, compounds were incubated with cells for 72 hours instead of 48 hours, and cells were seeded at a density of 2000/well instead of 6000/well. In addition, the transfection reagent to DNA ratio was 2:1 instead of 3.5:1.

[7] = Homo sapiens, HeLa, Table 13 Comparative Studies, read-out: Human Line-1 IC50
[8] = pYX016, 48 H post-transfection, read-out: Mouse L1 activity inhibition IC50, Exp. 1
[9] = pYX016, 48 H post-transfection, read-out: Mouse L1 activity inhibition IC50, Exp. 2
[10] = pYX016, 48 H, n = 2, read-out: Mouse L1 activity inhibition IC50, Average
[11] = Homo sapiens, HeLa cells, pYX017, 72 h, n = 3, read-out: Human LINE-1 IC50, Average
[12] = Homo sapiens, HeLa cells, pYX017, 72 h, read-out: Human LINE-1 IC50, Exp. 3
[13] = Homo sapiens, HeLa cells, pYX017, 72 h, read-out: Human LINE-1 IC50, Exp.1
[14] = Homo sapiens, HeLa cells, pYX017, 72 h, read-out: Human LINE-1 IC50, Exp.2

In the case of `C#C[C@]1(COP(=O)(O)OP(=O)(O)OP(=O)(O)O)O[C@@H](n2cnc3c(N)nc(F)nc32)C[C@@H]1O` [EFdA-TP], the “intracellular T-half in human PBMC” value [1] is listed as 78.5 to 128 h, the EC50 (human LINE-1 [2]) is listed as 316 nM and the IC50 (HIV WT) is listed as 49 nM.

In the case of `Cc1cn([C@H]2C=C[C@@H](CO)O2)c(=O)[nH]c1=O` [Stavudine], the IC50 (human LINE-1 [3]; [7]) is listed as 0.75 µM, the huCSF/Plasma [4] is listed as 0.2 and the IC50 (mouse LINE-1; [8]) is listed as 1590 nM. For the same molecule, the IC50 (mouse LINE-1; [9]) was 1860 nM, the IC50 (mouse LINE-1; [10]) was 1720 nM and the “Human Line-1 Intracellular drug conc. (% of IC-50 conc.)” value [5] was 63%.

In the case of `Cc1nnc(C(=O)NC(C)(C)c2nc(C(=O)NCc3ccc(F)cc3)c(O)c(=O)n2C)o1` [Raltegravir potassium], the IC50 (human LINE-1 [3]; [11]) is reported as greater than 9.86 µM, the IC50 (human LINE-1 [3]; [12]) is reported as 49.3 µM and the IC50 (human LINE-1 [3]; [13]) is reported as 9.86 µM. For the same molecule, the IC50 (human LINE-1 [3]; [14]) was greater than 50 µM.

For `C[C@@H]1CCO[C@H]2Cn3cc(C(=O)NCc4ccc(F)cc4F)c(=O)c(O)c3C(=O)N12` [Dolutegravir sodium], the IC50 (human LINE-1 [3]; [11]) was greater than 9.38 µM, the IC50 (human LINE-1 [3]; [12]) was greater than 20 µM and the IC50 (human LINE-1 [3]; [13]) was 9.38 µM.

In the case of `Cc1cn([C@H]2C[C@H](N=[N+]=[N-])[C@@H](CO)O2)c(=O)[nH]c1=O` [Zidovudine], the IC50 (human LINE-1 [3]; [11]) is reported as 0.81 µM, the IC50 (human LINE-1 [3]; [12]) is reported as 1.68 µM and the IC50 (human LINE-1 [3]; [13]) is reported as 0.41 µM. For the same molecule, the IC50 (human LINE-1 [3]; [14]) was 0.34 µM.

Work on `C[C@H](Cn1cnc2c(N)ncnc21)OCP(=O)(O)O` [Tenofovir] yielded an IC50 (human LINE-1 [3]; Table 13 Comparative Studies, read-out: Human Line-1 IC50) of 2.77 µM, an IC50 (mouse LINE-1; [8]) of 3470 nM and an IC50 (mouse LINE-1; [9]) of 4020 nM. For the same molecule, the IC50 (mouse LINE-1; [10]) was 3750 nM.

For `Nc1nc(NC2CC2)c2ncn([C@H]3C=C[C@@H](CO)C3)c2n1` [Abacavir (ABC), Abacavir], the IC50 (human LINE-1 [3]; [7]) is given as 17.1 µM, the huCSF/Plasma [4] is given as 0.67 and the “Human Line-1 Intracellular drug conc. (% of IC-50 conc.)” value [5] is given as 106%.

For `Nc1ccn([C@H]2CO[C@@H](CO)S2)c(=O)n1` [Apricitabine], the IC50 (mouse LINE-1; [8]) was 4440 nM, the IC50 (mouse LINE-1; [9]) was 3820 nM and the IC50 (mouse LINE-1; [10]) was 4130 nM.

Work on `Cc1ccnc2c1NC(=O)c1cccnc1N2C1CC1` [Nevirapine] yielded an IC50 (human LINE-1 [3]; [11]) greater than 50 µM, an IC50 (human LINE-1 [3]; [13]) greater than 50 µM and an IC50 (human LINE-1 [3]; [14]) greater than 50 µM.

`C#C[C@@]1(CO)C=C[C@H](n2cc(C)c(=O)[nH]c2=O)O1` [Censavudine] gave an IC50 (human LINE-1 [6]; pYX017, 72 H post-transfection, read-out: Human L1 activity inhibition IC50, Exp. 1) of 53 nM, an IC50 (human LINE-1 [6]; pYX017, 72 H post-transfection, read-out: Human L1 activity inhibition IC50, Exp. 2) of 92 nM and an IC50 (human LINE-1 [6]; pYX017, 72 H, n = 2, read-out: Human L1 activity inhibition IC50, Average) of 72 nM. For the same molecule, the IC50 (human LINE-1 [6]; read-out: human L1 inhibition IC50) was roughly 100 nM, the IC50 (human LINE-1 [3]; [11]) was 0.1 µM and the IC50 (human LINE-1 [3]; [12]) was 0.05 µM. For the same molecule, the IC50 (human LINE-1 [3]; [13]) was 0.13 µM, the IC50 (human LINE-1 [3]; [14]) was 0.12 µM and the IC50 (mouse LINE-1; [8]) was 118 nM. For the same molecule, the IC50 (mouse LINE-1; [9]) was 105 nM, the IC50 (mouse LINE-1; [10]) was 112 nM and the IC50 (mouse LINE-1; read-out: mouse L1 inhibition IC50) was roughly 100 nM.

With `Cc1cc(/C=C/C#N)cc(C)c1Nc1ccnc(Nc2ccc(C#N)cc2)n1` [Rilpivirine] the IC50 (human LINE-1 [3]; [11]) was greater than 15.1 µM, the IC50 (human LINE-1 [3]; [12]) was 45.5 µM and the IC50 (human LINE-1 [3]; [13]) was greater than 50 µM. It also gave an IC50 (human LINE-1 [3]; [14]) of 15.1 µM.

Work on `CC(C)OC(=O)OCOP(=O)(CO[C@H](C)Cn1cnc2c(N)ncnc21)OCOC(=O)OC(C)C` [Tenofovir Disiproxil, tenofovir disoproxil] yielded an IC50 (human LINE-1 [3]; [7]) of 0.2 µM, an IC50 (mouse LINE-1; [8]) of 157 nM and an IC50 (mouse LINE-1; [9]) of 151 nM. It also gave an IC50 (mouse LINE-1; [10]) of 154 nM.

For `O=C(NCc1c(F)cc(F)cc1F)c1cn2c(c(O)c1=O)C(=O)N1[C@H]3CC[C@H](C3)O[C@@H]1C2` [Bictegravir], the IC50 (human LINE-1 [3]; [11]) was greater than 12.4 µM, the IC50 (human LINE-1 [3]; [13]) was 12.4 µM and the IC50 (human LINE-1 [3]; [14]) was greater than 50 µM.

`O=C1Nc2ccc(Cl)cc2[C@@](C#CC2CC2)(C(F)(F)F)O1` [Efavirenz] gave an IC50 (human LINE-1 [3]; [11]) greater than 0.25 µM, an IC50 (human LINE-1 [3]; [13]) greater than 50 µM and an IC50 (human LINE-1 [3]; [14]) greater than 0.25 µM.
